Tests used:
[1] = tested on: A549 cells; assay: Cytotoxicity assay (alamarBlue cell viability); format: cell-based, Human; settings: A549 cells, 48 h; read-out: CC50
In short: (§1)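 Actively dividing A549 cells exposed to compounds for 48 h, then alamarBlue (1/10th in culture medium) added for a further 4 h. CC50 taken as concentration giving 50% cytotoxicity; selectivity index = CC50/IC50, with IC50 from HAdV infection inhibition.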

[2] = Cytotoxicity assay (alamarBlue cell viability); format: cell-based, Human; settings: human, A549 cells, 48 h
In short: as §1

[3] = tested on: HAdV5-GFP; assay: Plaque assay, HAdV5-GFP in 293β5 cells; format: cell-based; settings: for Selectivity Index (SI) HAdV5: ratio CC50 to IC50, HAdV5; for IC50: read-out: IC50 HAdV5; for inhibition at 10 µM: read-out: Percentage of plaque formation inhibition, HAdV5-GFP, 10 μM, 293β5 cell line
In short: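 293β5 cells infected with HAdV5-GFP at 0.06 vp/cell for 2 h at 37° C. Then overlaid with agar/EMEM containing compound (5 to 1 μM stated range; screen run at 10 μM). After 7 days at 37° C., GFP plaques imaged and counted relative to DMSO control.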

[4] = tested on: wild-type HAdV16; assay: Virus yield reduction (burst assay, TCID50), HAdV16; format: cell-based; settings: 50 μM, A549 cells, 48 h, yield with DMSO divided by yield with compound
Method: (§2) 1.8. Virus yield reduction. The effect of the active compounds on virus production was evaluated in a burst assay A549 cells were infected with wild-type HAdV5 or HAdV16 (MOI 100) in the presence or absence of 50 μM compounds. After 48 h, cells were harvested and subjected to three rounds of freeze/thaw. Serial dilutions of clarified lysates were titrated on A549 cells and TCID50 values were calculated using an endpoint dilution method.46

[5] = tested on: HAdV16-GFP; assay: Plaque assay, HAdV16-GFP in 293β5 cells; format: cell-based; settings: for Selectivity Index (SI) HAdV16: ratio CC50 to IC50, HAdV16
Method: 1.5. Plaque assay. For low MOI infections, active compounds were further evaluated in a plaque assay. 293β5 cells were seeded in 6-well plates at 4×10^5 cells per well in duplicate for each condition. When cells reached 80-90% confluency, they were infected with HAdV5-GFP or HAdV16-GFP (0.06 vp/cell) and rocked for 2 h at 37° C. The inoculum was removed and the cells were washed once with PBS. The cells were then carefully overlaid with 4 ml/well of equal parts of 1.6% […] Difco Agar Noble (Becton, Dickinson & Co, Sparks, MD) and 2× EMEM (BioWhittaker) supplemented with 2x penicillin/streptomycin, 2× L-glutamine and 10% FBS. The mixture also contained compound in concentrations ranging from 5 to 1 μM. Following incubation for 7 days at 37° C., plates were scanned with a Typhoon 9410 imager (GE Healthcare Life Sciences), and plaques were quantified with ImageJ.43

[6] = tested on: HCMV (AD169); assay: HCMV infectivity assay by quantitative PCR; format: cell-based, human cytomegalovirus; settings: Human betaherpesvirus 5, AD169, MRC5, MRC-5 cells, 72 h, qPCR, read-out: Inhibition of HCMV DNA replication
Method: 1.9. HCMV infectivity assay by quantitative PCR. […] After 72 h of incubation at 37° C., DNA was purified from the cell lysate with the QlAamp DNA Mini Kit (QIAGEN, Valencia, Calif.) following the manufacturer's instructions. TaqMan primers and probes for a region of the US28 gene were designed with the GenScript Real-time PCR (TaqMan) Primer Design software (GenScript). Oligonucleotides sequences were CMV-F: 5′-[…]-3′; CMV-R: 5′-[…]-3′; and CMV-Probe: 5′-[…]-3′. Real-time PCR mixtures consisted of 10 μl the purified DNA, CMV-F at a concentration of 100 nM, CMV-R at a concentration of 300 nM, and CMV-Probe at a concentration of 50 nM in a total volume of 12.5 μl and mixed with 12.5 μl of KAPA PROBE FAST qPCR Master Mix (KAPABiosystems, MA). The PCR cycling protocol was 95° C. for 10 min followed by 40 cycles of 95° C. for 30 sec and 58° C. for 60 sec. Human glyceraldehyde-3-phosphate dehydrogenase (GAPDH) was used as internal control. Oligonucleotides sequences for GAPDH and conditions were those previously reported by Rivera et al.44 For quantification, gene fragment from US28 and GAPDH were cloned into the pGEM-T Easy vector (Promega) and known concentrations of template were used to generate a standard curve in parallel for each experiment. All assays were performed in a C1000 Thermal Cycler apparatus (BioRad).

[7] = tested on: wild-type HAdV5; assay: Virus yield reduction (burst assay, TCID50), HAdV5; format: cell-based; settings: 50 μM, A549 cells, 48 h, yield with DMSO divided by yield with compound
Method: as §2

| SMILES | CC50 [1] [µM] | CC50 at 48 h [2] [µM] | Selectivity Index (SI) HAdV5 [3] | IC50 [3] [µM] | inhibition at 10 µM [3] [%] | Virus yield reduction HAdV16 [4] [fold] | IC50 [5] [µM] | Selectivity Index (SI) HAdV16 [5] | inhibition at 50 µM [6] [%] | Virus yield reduction HAdV5 [7] [fold] |
| --- | --- | --- | --- | --- | --- | --- | --- | --- | --- | --- |
| CC(C)(C)OC(=O)N1CCN(C(=O)Nc2ccc([N+](=O)[O-])cc2)C(c2ccccc2)C1 (centres unmarked) [Compound 46, 4-tert-Butoxycarbonyl-1-[(4-nitrophenyl)aminocarbonyl]-2-phenylpiperazine] | 161 ± 45.2 | 161 ± 45.2 | 47.3 | 3.4 ± 0.96 | 96 to 100 | 265.5 ± 29.1 | 4.8 ± 1.24 | 33.6 | 99.6 ± 0.39 | 211.7 ± 44.1 |
| O=C(c1cc2ccccc2o1)N1CCN(C(=O)Nc2ccc([N+](=O)[O-])cc2)C(c2ccccc2)C1 (centres unmarked) [Compound 59, 4-(Benzofuran-2-carbonyl)-1-[(4-nitrophenyl)aminocarbonyl]-2-phenylpiperazine] |  | 193.9 ± 1.68 | 93.5 | 2.1 ± 0.1 | 96 to 100 | 34.6 ± 11.6 | 3.5 ± 1.03 | 55.4 | 99.9 ± 0.06 | 35.7 ± 13.5 |
| O=C(c1cc2ccccc2o1)N1CCN(C(=O)Nc2ccc(Cl)cc2)C(c2ccccc2)C1 (centres unmarked) [Compound 60, 4-(Benzofuran-2-carbonyl)-1-[(4-chlorophenyl)aminocarbonyl]-2-phenylpiperazine] |  | 194 ± 9.19 | 79 | 2.5 ± 1.17 | 96 to 100 | 27.4 ± 16.9 | 3.4 ± 0.93 | 56.9 | 98.2 ± 2.1 | 9.9 ± 3.4 |
| N#Cc1ccc(NC(=O)N2CCN(C(=O)c3cc4ccccc4o3)CC2c2ccccc2)cc1 (centres unmarked) [Compound 63, 4-(Benzofuran-2-carbonyl)-1-[(4-cyanophenyl)aminocarbonyl]-2-phenylpiperazine] | 199.8 ± 0.26 | 199.8 ± 0.26 | 42.7 | 4.7 ± 0.11 | 96 to 100 | 60.9 ± 12.5 | 3.9 ± 1.12 | 51.2 | 99.9 ± 0.05 | 16.9 ± 5.2 |

Source: US20190308956A1, “PIPERAZINE DERIVATIVES AS ANTIVIRAL AGENTS WITH INCREASED THERAPEUTIC ACTIVITY” (SERVICIO ANDALUZ DE SALUD, priority 2016, published 2019)
